Results taken from US11230540B2, “Substituted triazole derivatives and uses thereof” (Bayer Pharma Aktiengesellschaft, priority 2017, dated 2022).
Structures can show the parent of a compound that is named as a salt.

How the values were obtained:
human V2 receptor = molecular target: T1, human V2 receptor (Homo sapiens, UniProt P30518); assay: Cellular in vitro assay for vasopressin receptor activity, V2 receptor cell line (CRE-luciferase); assay type: cell-based; conditions: CHO cell line transfected with human V2 receptor; [Arg8]-vasopressin at EC50 concentration; read-out: IC50 hV2
T1 construct: expressed in transfected cells; host or cells: CHO K1 (Chinese hamster ovary) expressing firefly luciferase under a CRE-responsive promoter
Description: (§1) B-1. Cellular In Vitro Assay for Determining Vasopressin Receptor Activity
(§2) The identification of agonists and antagonists of the V1a and V2 vasopressin receptors from humans, rats and dogs as well as the quantification of the activity of the compounds of the invention is carried out using recombinant cell lines. These cell lines originally derive from a hamster's ovary epithelial cell (Chinese Hamster Ovary, CHO K1, ATCC: American Type Culture Collection, Manassas, Va. 20108, USA). The test cell lines constitutively express the human, rat or dog V1a or V2 receptors. In case of the […] V1a receptors, cells are also stably transfected with a modified form of the calcium-sensitive photoproteins aequorin (human and rat V1a) or obelin (dog V1a), which, after reconstitution with the cofactor coelenterazine, emit light when there are increases in free calcium concentrations [Rizzuto R, Simpson A W, Brini M, Pozzan T, Nature 358, 325-327 (1992); Illarionov B A, Bondar V S, Illarionova V A, Vysotski E S, Gene 153 (2), 273-274 (1995)]. The resulting vasopressin receptor cells react to stimulation of the recombinantly expressed V1a receptors by intracellular release of calcium ions, which can be quantified by the resulting photoprotein luminescence. The Gs-coupled V2 receptors are stably transfected into cell lines expressing the gene for firefly luciferase under control of a CRE-responsible promoter. Activation of V2 receptors induces the activation of the CRE-responsive promoter via cAMP increase, thereby inducing the expression of firefly luciferase. The light emitted by photoproteins of V1a cell lines as well as the light emitted by firefly luciferase of V2 cell lines corresponds to the activation or inhibition of the respective vasopressin receptor. The bioluminescence of the cell lines is detected using a suitable luminometer [Milligan G, Marshall F, Rees S, Trends in Pharmacological Sciences 17, 235-237 (1996)].
Vasopressin V2 Receptor Cell Lines:
On the day before the assay, the cells are plated out in culture medium (DMEM/F12, 2% FCS, 2 mM glutamine, 10 mM HEPES) in 384-well microtiter plates and kept in a cell incubator (96% humidity, 5% v/v CO2, 37° C.). On the day of the assay, test compounds in various concentrations and the agonist [Arg^8]-vasopressin at EC50 concentration are added together to the wells, and plates are incubated for 3 hours in a cell incubator. Upon addition of the cell lysis reagent Triton™ and the substrate luciferin, luminescence of firefly luciferase is measured in a luminometer.
(§3) Table 1A below lists individual IC50 values for the compounds of the invention (including racemic mixtures as well as separated enantiomers) that were obtained from cell lines transfected with the human V1a or V2 receptor: […]

human V1a receptor = molecular target: T2, human V1a receptor (Homo sapiens, UniProt P37288); assay: Cellular in vitro assay for vasopressin receptor activity, V1a receptor cell line (aequorin luminescence); assay type: cell-based; conditions: for IC50: CHO cell line transfected with human V1a receptor, [Arg8]-vasopressin at EC50 concentration, read-out: IC50 hV1a; for ratio IC50 hV2/hV1a: selectivity ratio of the IC50 values hV2/hV1a
T2 construct: expressed in transfected cells; host or cells: CHO K1 (Chinese hamster ovary), also stably transfected with a modified aequorin
Description: as §1, §2
Vasopressin V1a Receptor Cell Lines:
On the day before the assay, the cells are plated out in culture medium (DMEM/F12, 2% FCS, 2 mM glutamine, 10 mM HEPES, 5 μg/ml coelenterazine) in 384-well microtiter plates and kept in a cell incubator (96% humidity, 5% v/v CO2, 37° C.). On the day of the assay, test compounds in various concentrations are placed for 10 minutes in the wells of the microtiter plate before the agonist [Arg^8]-vasopressin at EC50 concentration is added. The resulting light signal is measured immediately in a luminometer.
as §3

T2 sequence (P37288 whole entry): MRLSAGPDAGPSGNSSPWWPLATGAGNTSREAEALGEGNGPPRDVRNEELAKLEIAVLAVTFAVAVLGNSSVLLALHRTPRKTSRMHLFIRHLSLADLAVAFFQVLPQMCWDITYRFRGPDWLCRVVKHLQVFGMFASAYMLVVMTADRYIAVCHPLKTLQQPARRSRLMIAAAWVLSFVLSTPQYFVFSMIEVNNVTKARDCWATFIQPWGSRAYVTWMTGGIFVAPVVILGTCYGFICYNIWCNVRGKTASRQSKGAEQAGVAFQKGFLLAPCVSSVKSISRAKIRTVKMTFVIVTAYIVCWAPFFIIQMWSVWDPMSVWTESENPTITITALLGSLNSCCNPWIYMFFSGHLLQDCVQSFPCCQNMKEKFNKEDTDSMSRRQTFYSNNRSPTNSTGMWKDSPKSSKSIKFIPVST
T1 sequence (P30518 whole entry): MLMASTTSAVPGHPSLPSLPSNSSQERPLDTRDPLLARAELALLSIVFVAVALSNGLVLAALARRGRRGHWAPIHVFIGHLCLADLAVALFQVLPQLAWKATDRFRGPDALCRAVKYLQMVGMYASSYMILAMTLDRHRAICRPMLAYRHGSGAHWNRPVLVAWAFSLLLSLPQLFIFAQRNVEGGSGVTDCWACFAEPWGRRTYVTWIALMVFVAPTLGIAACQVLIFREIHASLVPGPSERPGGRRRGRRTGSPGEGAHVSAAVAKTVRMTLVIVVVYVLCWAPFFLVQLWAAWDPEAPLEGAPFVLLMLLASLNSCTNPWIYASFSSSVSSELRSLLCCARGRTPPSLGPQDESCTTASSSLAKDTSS

| Compound | IC50 (human V2 receptor) [µM] | IC50 (human V1a receptor) [µM] | ratio IC50 hV2/hV1a (human V1a receptor) |
| --- | --- | --- | --- |
| CC(C)(C)NC(=O)c1nc(Cn2nc(-c3ccc(Cl)cc3)n(C[C@H](O)C(F)(F)F)c2=O)nn1-c1ncccc1OC(F)(F)F [Example 29, N-tert-Butyl-3-({3-(4-chlorophenyl)-5-oxo-4-[(2S)-3,3,3-trifluoro-2-hydroxypropyl]-4,5-dihydro-1H-1,2,4-triazol-1-yl}methyl)-1-[3-(trifluoromethoxy)pyridin-2-yl]-1H-1,2,4-triazole-5-carboxamide] | 0.635 | 0.0195 | 32.6 |
| O=C(c1nc(Cn2nc(-c3ccc(Cl)cc3)n(C[C@H](O)C(F)(F)F)c2=O)nn1-c1ccccc1Cl)N1CCOCC1 [Example 30, 5-(4-Chlorophenyl)-2-{[1-(2-chlorophenyl)-5-(morpholin-4-ylcarbonyl)-1H-1,2,4-triazol-3-yl]methyl}-4-[(2S)-3,3,3-trifluoro-2-hydroxypropyl]-2,4-dihydro-3H-1,2,4-triazol-3-one] | 0.0293 | 0.00101 | 29.0 |
| O=C1CN(C(=O)c2nc(Cn3nc(-c4ccc(Cl)cc4)n(C[C@H](O)C(F)(F)F)c3=O)nn2-c2ccccc2Cl)CCN1 [Example 31, 4-{[1-(2-Chlorophenyl)-3-({3-(4-chlorophenyl)-5-oxo-4-[(2S)-3,3,3-trifluoro-2-hydroxypropyl]-4,5-dihydro-1H-1,2,4-triazol-1-yl}methyl)-1H-1,2,4-triazol-5-yl]carbonyl}piperazin-2-one] | 0.034 | 0.0057 | 6.0 |
| O=C(NCC1(O)CC1)c1nc(Cn2nc(-c3ccc(Cl)cc3)n(C[C@H](O)C(F)(F)F)c2=O)nn1-c1ccccc1Cl [Example 32, 1-(2-Chlorophenyl)-3-({3-(4-chlorophenyl)-5-oxo-4-[(2S)-3,3,3-trifluoro-2-hydroxypropyl]-4,5-dihydro-1H-1,2,4-triazol-1-yl}methyl)-N-[(1-hydroxycyclopropyl)methyl]-1H-1,2,4-triazole-5-carboxamide] | 0.00743 | 0.0012 | 6.2 |
| O=C(NC1CC1)c1nc(Cn2nc(-c3ccc(Cl)cc3)n(C[C@H](O)C(F)(F)F)c2=O)nn1-c1ccccc1Cl [Example 33, 1-(2-Chlorophenyl)-3-({3-(4-chlorophenyl)-5-oxo-4-[(2S)-3,3,3-trifluoro-2-hydroxypropyl]-4,5-dihydro-1H-1,2,4-triazol-1-yl}methyl)-N-cyclopropyl-1H-1,2,4-triazole-5-carboxamide] | 0.00977 | 0.00132 | 7.4 |
| CNC(=O)c1nc(Cn2nc(-c3ccc(Cl)cc3)n(C[C@H](O)C(F)(F)F)c2=O)nn1-c1cccc(Cl)c1 [Example 34, 1-(3-Chlorophenyl)-3-({3-(4-chlorophenyl)-5-oxo-4-[(2S)-3,3,3-trifluoro-2-hydroxypropyl]-4,5-dihydro-1H-1,2,4-triazol-1-yl}methyl)-N-methyl-1H-1,2,4-triazole-5-carboxamide] | 0.00695 | 0.0346 | 0.2 |
| CN(C)C(=O)c1nc(Cn2nc(-c3ccc(Cl)cc3)n(C[C@H](O)C(F)(F)F)c2=O)nn1-c1cccc(Cl)c1 [Example 35, 1-(3-Chlorophenyl)-3-({3-(4-chlorophenyl)-5-oxo-4-[(2S)-3,3,3-trifluoro-2-hydroxypropyl]-4,5-dihydro-1H-1,2,4-triazol-1-yl}methyl)-N,N-dimethyl-1H-1,2,4-triazole-5-carboxamide] | 0.00364 | 0.00492 | 0.7 |
| O=C(c1nc(Cn2nc(-c3ccc(Cl)cc3)n(C[C@H](O)C(F)(F)F)c2=O)nn1-c1cccc(Cl)c1)N1CCOCC1 [Example 36, 5-(4-Chlorophenyl)-2-{[1-(3-chlorophenyl)-5-(morpholin-4-ylcarbonyl)-1H-1,2,4-triazol-3-yl]methyl}-4-[(2S)-3,3,3-trifluoro-2-hydroxypropyl]-2,4-dihydro-3H-1,2,4-triazol-3-one] | 0.0128 | 0.0183 | 0.7 |
| COCCNC(=O)c1nc(Cn2nc(-c3ccc(Cl)cc3)n(C[C@H](O)C(F)(F)F)c2=O)nn1-c1cccc(F)c1 [Example 37, 3-({3-(4-Chlorophenyl)-5-oxo-4-[(2S)-3,3,3-trifluoro-2-hydroxypropyl]-4,5-dihydro-1H-1,2,4-triazol-1-yl}methyl)-1-(3-fluorophenyl)-N-(2-methoxyethyl)-1H-1,2,4-triazole-5-carboxamide] | 0.0234 | 0.0386 | 0.6 |
| O=C(NCC(F)(F)F)c1nc(Cn2nc(-c3ccc(Cl)cc3)n(C[C@H](O)C(F)(F)F)c2=O)nn1-c1cccc(F)c1 [Example 38, 3-({3-(4-Chlorophenyl)-5-oxo-4-[(2S)-3,3,3-trifluoro-2-hydroxypropyl]-4,5-dihydro-1H-1,2,4-triazol-1-yl}methyl)-1-(3-fluorophenyl)-N-(2,2,2-trifluoroethyl)-1H-1,2,4-triazole-5-carboxamide] | 0.0114 | 0.00966 | 1.2 |
| O=C(NC1CC1)c1nc(Cn2nc(-c3ccc(Cl)cc3)n(C[C@H](O)C(F)(F)F)c2=O)nn1-c1cccc(F)c1 [Example 39, 3-({3-(4-Chlorophenyl)-5-oxo-4-[(2S)-3,3,3-trifluoro-2-hydroxypropyl]-4,5-dihydro-1H-1,2,4-triazol-1-yl}methyl)-N-cyclopropyl-1-(3-fluorophenyl)-1H-1,2,4-triazole-5-carboxamide] | 0.0281 | 0.047 | 0.6 |
| CC(C)(C)OC(=O)N1CCN(C(=O)c2nc(Cn3nc(-c4ccc(Cl)cc4)n(C[C@H](O)C(F)(F)F)c3=O)nn2-c2cccc(F)c2)CC1 [Example 40, tert-Butyl 4-{[3-({3-(4-chlorophenyl)-5-oxo-4-[(2S)-3,3,3-trifluoro-2-hydroxypropyl]-4,5-dihydro-1H-1,2,4-triazol-1-yl}methyl)-1-(3-fluorophenyl)-1H-1,2,4-triazol-5-yl]carbonyl}piperazine-1-carboxylate] | 0.0987 | 0.131 | 0.8 |
| O=C(c1nc(Cn2nc(-c3ccc(Cl)cc3)n(C[C@H](O)C(F)(F)F)c2=O)nn1-c1cccc(F)c1)N1CCNCC1 [Example 41, 5-(4-Chlorophenyl)-2-{[1-(3-fluorophenyl)-5-(piperazin-1-ylcarbonyl)-1H-1,2,4-triazol-3-yl]methyl}-4-[(2S)-3,3,3-trifluoro-2-hydroxypropyl]-2,4-dihydro-3H-1,2,4-triazol-3-one trifluoroacetate] | 0.141 | 0.0193 | 7.4 |
| CNC(=O)c1nc(Cn2nc(-c3ccc(Cl)cc3)n(C[C@H](O)C(F)(F)F)c2=O)nn1-c1ccccc1OC [Example 42, 3-({3-(4-Chlorophenyl)-5-oxo-4-[(2S)-3,3,3-trifluoro-2-hydroxypropyl]-4,5-dihydro-1H-1,2,4-triazol-1-yl}methyl)-1-(2-methoxyphenyl)-N-methyl-1H-1,2,4-triazole-5-carboxamide] | 0.00829 | 0.00112 | 7.4 |
| CNC(=O)c1nc(Cn2nc(-c3ccc(Cl)cc3)n(C[C@H](O)C(F)(F)F)c2=O)nn1-c1ccccc1Cl [Example 43, 1-(2-Chlorophenyl)-3-({3-(4-chlorophenyl)-5-oxo-4-[(2S)-3,3,3-trifluoro-2-hydroxypropyl]-4,5-dihydro-1H-1,2,4-triazol-1-yl}methyl)-N-methyl-1H-1,2,4-triazole-5-carboxamide] | 0.0167 | 0.00207 | 8.1 |
